We go through four molecules from the NIST ThermoML archive (doi:10.1021/je100704j).

The conditions of data set [1]: 298.15 K; 101.33 kPa; Liquid; Vibrating tube method.
Data set [2] can be described thus: refractive index (Na D-line) (dimensionless). Particulars: 293.15 K; 101.33 kPa; Liquid; Standard Abbe refractometry.

Numbers after ± are expanded uncertainties.

With `O` [water], the mass density (as a rule, mass per unit of volume) in data set [1] came out at 996.8 ± 0.2 kg/m3. Besides, the refractive index – broadly, a measure of how strongly the sample bends light – in data set [2] is 1.3327 ± 0.0008.
As for `CC(=O)CC(C)=O` [2,4-pentanedione], the mass density in data set [1] is listed as 971.7 ± 0.2 kg/m3. In addition, the refractive index in data set [2] was determined as 1.4489 ± 0.0008.
Consider `CCOC(C)=O` [ethyl acetate], for which, in data set [1], the mass density worked out at 894.6 ± 0.2 kg/m3. In addition, in data set [2], the refractive index is given as 1.3701 ± 0.0008.
Taken in the same sequence, the figures for `C1CCCCC1` [cyclohexane] were 773.4 ± 0.2 kg/m3 and 1.4259 ± 0.0008.
